Drawing on a melting point compilation (Tetko et al.), this text covers melting point for 110 molecules.

The structures appear in SMILES notation.

As to `CS(=O)(=O)c1ccc(S(=O)(=O)Cl)cc1`, the melting point (usually the temperature, or range, at which the solid turns liquid) worked out at 160 °C. `Nc1cccc(CN2CCCCC2)c1` came in with a melting point of 106 to 109 °C. Then `CC(NC(=O)CCCCNC(=O)C12CC3CC(CC(C3)C1)C2)[P+]([O-])(Oc1ccccc1)Oc1ccccc1` (stereo not given), with 150 °C; and `CC(=O)c1c(O)ccc2ccccc12`, with 65 °C; and `CC(=O)Oc1c(C)c(C)c2c(c1C)CCC(C)(CCCC(C)CCCC(C)CCCC(C)C)O2` (stereo not given), with -28 °C. For `COc1ccc(C2CCCCC2)cc1N` the value was 66 to 68 °C. Then `Nc1ccc(Oc2ccc([N+](=O)[O-])cc2)cc1`, with 132 to 134 °C; and `O=c1[nH]sc2ccccc12`, with 156 °C; and `COc1cccc(OC)c1C(=O)O`, with 187 to 190 °C. Molecule `C=CCC1=C(C)C(OC(=O)C2C(C=C(C)C)C2(C)C)CC1=O` (stereo not given) came in with a melting point of 4 °C.

Molecule `CCOC(=O)C=P(c1ccccc1)(c1ccccc1)c1ccccc1` returned a melting point of 124 to 129 °C. The molecule `O=C1C[C@@H](C(=O)O)c2ccccc21` gave a melting point of 113 °C. For `CCOC(=O)c1c(C)oc(NC(=O)Nc2ccc(Cl)cc2)c1C(=O)OCC` the value was 169 to 170 °C; for `CC(C)(C)OC(=O)N[C@@H](CCC(=O)OCc1ccccc1)C(=O)O`, 65 to 68 °C; for `CCC1=CCCC1=NNc1ccc([N+](=O)[O-])cc1[N+](=O)[O-]`, 220 °C. For `O=C(C=Cc1ccccc1)c1ccccc1O` the value was 90 °C; for `Clc1ccc(-c2c(Cl)cc(Cl)c(Cl)c2Cl)c(Cl)c1`, 73 °C. For `O=C(Cl)c1cnn2ccccc12` the value was 116 to 118 °C; for `O=C(Cl)c1ccc(-c2cccs2)cc1`, 113 to 115 °C; for `CC(=O)Oc1ccc(I)cc1`, 32 °C. Consider `Cc1cc(C(=O)NCc2ccc(Cl)cc2)no1`, for which the melting point was 140 to 143 °C. For `Fc1c(F)c(F)c(S)c(F)c1F` the value was -24 °C; for `N#CC1=C(N)Oc2c(c(C(F)(F)F)nn2-c2ccccc2)C1c1ccccc1` (stereo not given), 191 °C. For `N#Cc1ccc(Br)cc1F` the value was 71 °C; for `COc1ccccc1Oc1ccccc1OC`, 79.5 °C; for `CC(C)n1cc(C#N)c(=O)[nH]c1=O`, 265 to 268 °C. For `CN(C)c1ccc(C(O)C2C(=O)N(c3ccccc3)N=C2C(F)(F)F)cc1` (stereo not given) the value was 171 °C; for `CN(C)c1ccc(C(Cl)=NO)cc1`, 165 °C. `CC(C)(C)c1cc(N=Nc2cc(C(C)(C)C)cc(C(C)(C)C)c2O)c(O)c(C(C)(C)C)c1` returned a melting point of 246 to 247 °C. Then `CN(C)c1ccn2c(=O)c3ccccc3cc2c1`, with 157 °C. `CCC(=O)C1(c2cccc(O)c2)CCN(C)CC1` yielded a melting point of 156 °C. As for `O=C(c1ccc2ccccc2c1)c1noc(-c2ccc([N+](=O)[O-])cc2)c1S(=O)(=O)c1ccccc1`, the melting point came to 131 °C.

Molecule `O=Cc1cccc(-c2ccncc2)c1` had a melting point of 48 °C. As for `CC(C)(C(=O)c1cccnc1)c1cccnc1`, the melting point was found to be 50.5 °C. Then `c1ccc(-c2cc3ccccc3cn2)cc1`, with 103 °C. Then `Fc1ccccc1F`, with -34 °C. Molecule `O=C(O)c1ccccc1-c1cccs1` yielded a melting point of 92 to 95 °C.

In the case of `BrCC(Br)(Br)Br`, the melting point was found to be 0 °C. For `CCCCCCCCCCCCCCC(=O)OC` the value was 18.5 °C; for `O=c1n(CCO)c(=O)n(CCO)c(=O)n1CCO`, 138 °C. `Brc1ccc(-c2ccccc2)s1` showed a melting point of 83 to 85 °C. For `CCOC(=O)c1c(SC)nn(C(=O)c2cccc(C)c2)c1C` the value was 115 °C; for `CN1CCN(C2=Nc3ccccc3Sc3ccc(Cl)cc32)CC1`, 119 °C; for `S=C=Nc1ccccc1N=C=S`, 56 to 58 °C. For `CCCC(C(N)=O)c1ccc(O)c(O)c1` (stereo not given) the value was 133 to 135 °C; for `COC(=O)Cc1nc(-c2ccccc2)sc1C`, 42 to 44 °C; for `c1ccc(OCc2ccc(CCCN3CCOCC3)cc2)cc1`, 52.5 °C. Then `Cc1ccc(I)cc1[N+](=O)[O-]`, with 60 °C; and `CC(C)(C(=O)O)C1=CCC2(C)C(CCC3C4CCC(O)C4(C)CCC32)C1` (stereo not given), with 264 °C.

`CCCCCCCCOc1ccccc1OCCCCCCCC`: the melting point was in the range of 22 to 25 °C.

In turn, `CC1(C)OC2C(CO)OC(n3ccc(=O)[nH]c3=O)C2O1` (stereo not given) had a melting point of 163 to 166 °C.

`O=C(O)CSCCS(=O)(=O)c1ccc(Cl)cc1` yielded a melting point of 127 to 129 °C. Then `CCOC(=O)C=Cc1ccc(N)cc1`, with 73 °C; and `OCCCCCCCCCCCl`, with 12.5 °C. Then `N#Cc1cc2ccccc2oc1=N`, with 200 °C; and `O=C(O)C=Cc1ccsc1`, with 155 to 156 °C. Regarding `Cc1ccc(O[C@H]2CC[C@@]3(C)C(=CC[C@H]4[C@@H]5CC[C@H]([C@H](C)CCCC(C)C)[C@@]5(C)CC[C@@H]43)C2)cc1`, the melting point amounted to 148 °C. Molecule `COc1ccc2c(OC(C)=O)c(OC)c(OC)c(OC(C)=O)c2c1` displayed a melting point of 77.5 °C. Then `COC(=O)c1csc2c(C(F)(F)F)cc(Cl)nc12`, with 110 to 111 °C; and `Fc1cc(F)c(F)c(F)c1`, with -48 °C. `COc1ccc(-c2ccnc(S)n2)cc1` showed a melting point of 202 °C. For `CC(=O)Nc1ccc(C#N)cc1OC(F)(F)F` the value was 118 to 120 °C.

In turn, `CC(=O)Nc1ccc(F)cc1F` showed a melting point of 122 °C. For `CCCCCCCCCC[C@H](O)CO` the value was 69 to 72 °C. Then `CCCCOc1ccc(N)cc1[N+](=O)[O-]`, with 60 to 64 °C; and `CN(C)S(C)(=O)=O`, with 49 to 50 °C. Then `CNCc1ccc(N2CCN(C(=O)OC(C)(C)C)CC2)cc1`, with 60 to 62 °C; and `O=C(Cl)c1ccc(N2CCOCC2)nc1`, with 158 to 159 °C; and `OCc1ccc2nccn2c1`, with 106 to 108 °C.

As for `O=C(O)CNC(=O)c1ccccc1`, the melting point was 222 °C. Then `O=C(OC(=O)c1ccc(C(F)(F)F)cc1)c1ccc(C(F)(F)F)cc1`, with 130 °C; and `CSC(SC)=C1CCCC(=C(SC)SC)C1=C(C#N)C#N`, with 155 to 156 °C; and `Fc1cc(I)ccc1Br`, with 36 to 41 °C.

For `CC(C)CS(=O)(=O)CC(C)C`, the melting point was determined as 17 °C. For `Cc1nc(-c2ccccc2)sc1CN` the value was 230 °C. For `Cc1ncc(CO)c(CO)c1O` the value was 160 °C; for `Cc1cccc2c1C(=O)NC2=O`, 183 to 189 °C. The molecule `CCOC(=O)c1nn(-c2ccc(C)cc2)c(=N)c(C#N)c1C` yielded a melting point of 150 °C. `Cc1cc2ccccc2c(Br)c1C` gave a melting point of 63 °C. With `CN(C(=S)Cl)c1ccc(Br)cc1`, the melting point was 101 to 104 °C. In the case of `O=C(CBr)Nc1ccccc1Cl`, the melting point is 89 to 91 °C.

Regarding `O=[N+]([O-])c1ccc2c(c1)Cc1cc([N+](=O)[O-])ccc1-2`, the melting point is 334 °C. For `Clc1ccc(-c2cc[nH]n2)cc1` the value was 80 to 84 °C; for `Cc1ccc2c3c(c4c(c2c1)CCCC4)CCCC3`, 93 °C; for `CN1CCNCC1`, -6 °C. For `NC(=O)c1cc(Cl)ccc1Cl` the value was 160 °C. Then `CCCCC(=O)NN`, with 60 °C; and `Oc1ccc(S)cc1`, with 34 °C.

`COC(=O)CCc1cc2c(cc1NC(C)=O)NC(=O)CC2` gave a melting point of 245 °C.

`Cc1nc(C(F)(F)F)c(C(=O)O)cc1-c1nc(-c2ccccc2)cs1` came in with a melting point of 188 to 190 °C. Then `O=c1on(-c2ccccc2)cc1-c1ccccc1`, with 175 °C.

In turn, `Cc1cccc(N)c1N` came in with a melting point of 63.5 °C. Then `O=[N+]([O-])c1ccc(-c2csc(CCl)n2)cc1`, with 154 to 158 °C. Then `N#CSC#N`, with 63.5 °C; and `CSc1nc2ccc([N+](=O)[O-])cc2s1`, with 134 to 136 °C. Then `O=CNc1ccc(Cl)cc1C(=O)c1ccccc1`, with 89 to 91 °C; and `N#C/C(=N/Nc1ccc(F)cc1)c1nc(-c2ccc(Cl)cc2)cs1`, with 225 °C. Consider `CCC(C(=O)Nc1cccc2ccccc12)C1CCC(OC)CC1` (stereo not given), for which the melting point is 163 °C. Then `N#Cc1ccc(Br)cc1Cl`, with 70 °C. For `CCCCCCCC(N)P(=O)(O)O` (stereo not given) the value was 269 to 270 °C; for `O=C(O)C(CCCc1ccccc1)c1ccccc1` (stereo not given), 78 °C; for `O=NN1NC(=O)CC1c1ccc(C2CC(=O)NN2N=O)cc1` (stereo not given), 150 °C. Turning to `Cc1ccc(S(=O)(=O)OCC2OC(C)(C)OC2COS(=O)(=O)c2ccc(C)cc2)cc1` (stereo not given), the melting point turned out to be 92 °C.

`CC(=O)c1csc([N+](=O)[O-])c1`: the melting point was 59 to 61 °C.

`CC(C)(C)OC(=O)N[C@@H](Cc1cccc(C#N)c1)C(=O)O`: the melting point came to 124 °C. Turning to `Nc1nsc(-c2ccccc2)n1`, the melting point lay in the range of 136 to 138 °C. Then `Cc1ccc(S(=O)(=O)OCCOCCOCCOS(=O)(=O)c2ccc(C)cc2)cc1`, with 80 to 82 °C; and `CC(=O)N1C(=O)Cc2cc3c(cc21)N(C(C)=O)C(=O)C3`, with 295 °C; and `N#CC1(O)C(C2COC3(CCCCC3)O2)OC2OC3(CCCCC3)OC21` (stereo not given), with 107 to 113 °C. Then `CNP(=O)(NC)Oc1ccccc1`, with 102 °C.
